Assay results from patent US11591352B2, “Method for treatment of senescence-related disorders” (SPRINGTIDE VENTURES S.R.O., priority 2016, dated 2023).
Where two headings read alike, the source gives them in different places.

Tests used:
[1] = test system: control retinal pigment epithelial cells (RPE); test: Viability (annexin V/Hoechst) of control RPE cells; type: cell-based; conditions: for % of Annexin V-/Hoechst-cells: ctrl
Experimental: (§3) The effect of compounds 7, 8, 10, 15 on primary senescent cells (retinal pigment epithelial cells (RPE) treated for 8 days with 100 μM 5-bromo-2-deoxyuridine (BrdU)) was tested.

[2] = test system: senescent retinal pigment epithelial cells (RPE) treated with BrdU; test: Viability (annexin V/Hoechst) of senescent RPE cells; conditions: for % of Annexin V-/Hoechst-cells: BrdU; for selectivity of cytotoxicity for senescent versus control cells (in words): senescent (BrdU) vs control RPE cells
Experimental: as §3

[3] = test system: RPE cells with inducible ANT2; test: Viability of RPE cells transfected with inducible ANT2; type: cell-based
Source text: (§1) Adenin nucleotid translocase 2 (ANT2) is a protein important for translocation of ATP from cytoplasm to mitochondria unlike two other members of ANT family, ANT1 and ANT3, participating in classical transfer of ADP into mitochondria via complex V during mitochondrial respiration. ANT2 plays a key role in maintenance of mitochondrial potential and in preserving intact mitochondria, especially in tumour cells. […] All these experiments show a key role of ANT2 in compound 8 resistance.

RPE (control) = test: Viability (Annexin V/Hoechst) of non-senescent control cells; type: cell-based; conditions: 48 h
Experimental: (§2) We tested the effect of compound 8 on cultured senescent pancreatic cells. We used three pancreatic cell lines (PANC-1, PaTu and BxPC-3) exposed to 100 μM BrdU for 6 days to induce senescence. These senescent cells were treated with different doses of compound 8 for 48 h and their viability was assessed. […] RPE cells, as the most sensitive tested cells, were used as a control to establish the concentration at which compound 8 is not toxic for non-senescent cells.

PaTu (senescent) = test: Viability (Annexin V/Hoechst) of senescent pancreatic cells; type: cell-based; conditions: 48 h
Experimental: as §2

BxPC-3 (senescent) = test: as above; type: cell-based; conditions: 48 h
Experimental: as §2

PANC-1 (senescent) = test: as above; type: cell-based; conditions: 48 h
Experimental: as §2

[4] = test system: p16, p21 and plasminogen activator inhibitor (PAI) mRNA; test: qRT PCR of senescent markers in organs of young and old FVB mice; type: in vivo
[5] = test system: p16, p21 and PAI mRNA in 4T1 cell-derived tumours; test: qRT PCR of senescent markers in 4T1 cell-derived tumours; type: in vivo, Balb-c mice
[6] = test system: p16 and p21 mRNA in PDX (triple-negative breast tumour); test: qRT PCR of senescence markers in patient-derived xenografts; type: in vivo, NOD scid gamma mice
Experimental: Importantly, we repeated this experiment using patient-derived xenografts (PDXs; triple-negative breast tumour) transplanted into NOD scid gamma mice and treated with compound 8 (0.375 mg of compound 8/mouse, twice per week for a period of 2-3 weeks).

[7] = test system: RPE cells (siNC / siANT2); test: Viability of RPE cells after ANT2 downregulation by siRNA; type: cell-based
Source text: as §1

[8] = test system: senescent retinal pigment epithelial cells (RPE) treated with BrdU
Experimental: as §3

[9] = test system: p16, p21 and PAI mRNA in FVB/cneu spontaneous tumours; test: qRT PCR of senescent markers in spontaneous tumours; type: in vivo, FVB mice
RPE cells = test: Lactate production in RPE cells; type: cell-based
Source text: as §1

[10] = test system: B-gal positive (senescent) cells in lungs; test: B-gal staining of lungs of young and naturally old FVB mice treated with compound 8; type: in vivo; conditions: for % of B-gal positive cells: 1 μg/g every week for 4 weeks
Experimental: We first analyzed the presence of senescent cells (using B-galactosidase (B-gal) staining) in organs in these two groups. From all tested organs (lungs, brain, white adipose tissue and stomach), we detected the biggest difference in presence of B-gal-positive cells in lungs (not shown). In the next step we treated the mice (6×19 month old mice+6×2 month old mice) with 1 dose of compound 8 (1 μg of compound 8/1 g mouse) every week for a period of 4 weeks. Mice (5×19 month old mice+6×2 month old mice) treated only with a corn oil without compound 8 were used as a control. After 4 weeks we removed lungs and detected percentage of B-gal positive cells in the tissues.

[11] = BALBe/4T1 tumors, treated, 0.2 mg/mouse twice per week for 2-3 weeks
[12] = PDX tumors, treated, 0.375 mg/mouse twice per week for 2-3 weeks
[13] = FVB/cneu tumors, treated, 0.2 mg/mouse twice per week for 2-3 weeks

## CC/C(=C(\c1ccccc1)c1ccc(OCCN(C)C)cc1)c1ccccc1 [Tamoxifen]
[1]; 1 μM
  % of Annexin V-/Hoechst-cells: 97.0%
[1]; 2.5 μM
  % of Annexin V-/Hoechst-cells: 96.7%
[1]; 5 μM
  % of Annexin V-/Hoechst-cells: 94.7%
[1]; 10 μM
  % of Annexin V-/Hoechst-cells: 55.8%
[1]; 20 μM
  % of Annexin V-/Hoechst-cells: 2.15%
[2]; 10 μM, both senescent and control cells
  decrease of viability (in words): by about half
[2]; 20 μM, both senescent and control cells
  cytotoxicity (in words): highly cytotoxic
[2]; 1 μM
  % of Annexin V-/Hoechst-cells: 73.8%
[2]; 2.5 μM
  % of Annexin V-/Hoechst-cells: 73.0%
[2]; 5 μM
  % of Annexin V-/Hoechst-cells: 70.1%
[2]; 10 μM
  % of Annexin V-/Hoechst-cells: 33.8%
[2]; 20 μM
  % of Annexin V-/Hoechst-cells: 4.3%
[2]
  selectivity of cytotoxicity for senescent versus control cells (in words): does not at any tested concentration have a significantly higher toxicity for senescent cells than for control cells
[2]; up to 5 μM, senescent and control cells
  cytotoxicity (in words): does not show cytotoxicity

## CN(C)CCOc1ccc(/C(=C(/CCCCCCCCCCBr)c2ccccc2)c2ccccc2)cc1 [compound 7]
[1]; 0.05 μM
  % of Annexin V-/Hoechst-cells: 94.6%
[1]; 0.1 μM
  % of Annexin V-/Hoechst-cells: 95.1%
[1]; 0.5 μM
  % of Annexin V-/Hoechst-cells: 91.4%
[2]; 0.05 μM
  % of Annexin V-/Hoechst-cells: 80.5%
[2]; 0.1 μM
  % of Annexin V-/Hoechst-cells: 78.3%
[2]; 0.5 μM
  % of Annexin V-/Hoechst-cells: 55.3%
[2]
  selectivity of cytotoxicity for senescent versus control cells (in words): selectively more cytotoxic to senescent cells

## CN(C)CCOc1ccc(/C(=C(/CCCCCCCCCC[P+](c2ccccc2)(c2ccccc2)c2ccccc2)c2ccccc2)c2ccccc2)cc1.[Br-] [compound 8]
[3]; RPE BrdU + ANT2
  resistance of senescent cells with induced ANT2 towards treatment (in words): increased resistance
[3]; RPE BrdU + ANT2 treated
  % of AnnexinV-/Hoechst-cells: 53.8%
[3]; RPE BrdU treated
  % of AnnexinV-/Hoechst-cells: 6.8%
[3]; RPE ctrl + ANT2 treated
  % of AnnexinV-/Hoechst-cells: 95.2%
[3]; RPE ctrl treated
  % of AnnexinV-/Hoechst-cells: 95.0%
RPE (control); 0.1 μM
  % of AnnexinV-/Hoechst-cells: 98.9 (+/− 0.14) %
RPE (control); 0.5 μM
  % of AnnexinV-/Hoechst-cells: 98.8 (+/− 0.21) %
RPE (control); 1 μM
  % of AnnexinV-/Hoechst-cells: 98.3 (+/− 0.14) %
RPE (control); 2.5 μM
  % of AnnexinV-/Hoechst-cells: 99.1 (+/− 0.35) %
[1]; control RPE
  effect on control cells (in words): without any effect on control cells
[1]; 1 μM
  % of Annexin V-/Hoechst-cells: 93.0%
[1]; 2.5 μM
  % of Annexin V-/Hoechst-cells: 90.3%
[1]; 5 μM
  % of Annexin V-/Hoechst-cells: 3.1%
PaTu (senescent); 0.1 μM
  % of AnnexinV-/Hoechst-cells: 24.7 (+/− 3.25) %
PaTu (senescent); 0.5 μM
  % of AnnexinV-/Hoechst-cells: 10.3 (+/− 0.97) %
PaTu (senescent); 1 μM
  % of AnnexinV-/Hoechst-cells: 3.6 (+/− 3.24) %
PaTu (senescent); 2.5 μM
  % of AnnexinV-/Hoechst-cells: 2.4 (+/− 1.21) %
BxPC-3 (senescent); 0.1 μM
  % of AnnexinV-/Hoechst-cells: 47.7 (+/− 0.49) %
BxPC-3 (senescent); 0.5 μM
  % of AnnexinV-/Hoechst-cells: 35.9 (+/− 6.22) %
BxPC-3 (senescent); 1 μM
  % of AnnexinV-/Hoechst-cells: 4.8 (+/− 0.83) %
BxPC-3 (senescent); 2.5 μM
  % of AnnexinV-/Hoechst-cells: 3.9 (+/− 1.69) %
PANC-1 (senescent); 0.1 μM
  % of AnnexinV-/Hoechst-cells: 92.3 (+/− 0.78) %
PANC-1 (senescent); 0.5 μM
  % of AnnexinV-/Hoechst-cells: 92.7 (+/− 1.27) %
PANC-1 (senescent); 1 μM
  % of AnnexinV-/Hoechst-cells: 5.0 (+/− 1.97) %
PANC-1 (senescent); 2.5 μM
  % of AnnexinV-/Hoechst-cells: 3.1 (+/− 0.68) %
[4]; kidney, 2 m treated
  PAI mRNA fold change: 0.47 (+/− 0.09) fold change
  p16 mRNA fold change: 0.02 (+/− 0.01) fold change
  p21 mRNA fold change: 0.25 (+/− 0.05) fold change
[4]; kidney, 19 m treated
  PAI mRNA fold change: 0.79 (+/− 0.17) fold change
  p16 mRNA fold change: 0.79 (+/− 0.31) fold change
  p21 mRNA fold change: 0.34 (+/− 0.11) fold change
[4]; lungs, 2 m treated
  PAI mRNA fold change: 0.69 (+/− 0.12) fold change
  p16 mRNA fold change: 0.63 (+/− 0.07) fold change
  p21 mRNA fold change: 0.30 (+/− 0.06) fold change
[4]; lungs, 19 m treated
  PAI mRNA fold change: 0.93 (+/− 0.22) fold change
  p16 mRNA fold change: 0.74 (+/− 0.12) fold change
  p21 mRNA fold change: 0.39 (+/− 0.03) fold change
[4]; old mouse tissue
  level of senescent markers p16, p21, PAI mRNA after treatment (in words): decreased almost to control levels
[2]; 1 μM
  % of Annexin V-/Hoechst-cells: 67.0%
[2]; 2.5 μM
  % of Annexin V-/Hoechst-cells: 13.9%
[2]; 5 μM
  % of Annexin V-/Hoechst-cells: 0.8%
[2]; RPE, 100 μM BrdU for 8 days
  effect on elimination of senescent cells (in words): specific effect on elimination of senescent cells
[5]; [11]
  PAI mRNA fold change: 0.59 (+/− 0.22) fold change
  p16 mRNA fold change: 0.20 (+/− 0.08) fold change
  p21 mRNA fold change: 0.77 (+/− 0.18) fold change
[5]; Balb-c mice with 4T1 tumours, 0.2 mg/mouse twice per week, 2-3 weeks
  increase of senescent markers p16, p21 and PAI on the mRNA level (in words): did not observe any increase
[6]; PDX in NOD scid gamma mice, 0.375 mg/mouse twice per week, 2-3 weeks
  increase of senescence markers (in words): no increase
[6]; [12]
  p2l mRNA fold change: 0.72 (+/− 0.84) fold change
  p16 mRNA fold change: 1.34 (+/− 1.25) fold change
[7]; RPE siANT2 treated
  % of AnnexinV-/Hoechst-cells: 20.7%
[7]; RPE siNC treated
  % of AnnexinV-/Hoechst-cells: 90.5%
[7]; RPE, ANT2 siRNA
  death of control cells with downregulated ANT2 after treatment (in words): increased death of these cells
[8]
  selectivity of cytotoxicity for senescent versus control cells (in words): selectively more cytotoxic to senescent cells
[9]; FVB mice with spontaneous tumours, 0.2 mg/mouse twice per week, 2-3 weeks
  increase of senescent markers p16, p21 and PAI on the mRNA level (in words): did not observe any increase
[9]; [13]
  PAI mRNA fold change: 1.93 (+/− 1.19) fold change
  p16 mRNA fold change: 0.39 (+/− 0.24) fold change
  p21 mRNA fold change: 1.94 (+/− 1.43) fold change
RPE cells; RPE BrdU (senescent) treated
  Lactate production (fold induction): 8.2 fold induction
RPE cells; RPE ctrl treated
  Lactate production (fold induction): 1.6 fold induction
[10]; 2 month old mice
  % of B-gal positive cells: 0.3%
[10]; 19 month old mice
  % of B-gal positive cells: 0.7%
[10]; old mice
  number of B-gal-positive cells after treatment (in words): decrease of their number
